According to ChEMBL document CHEMBL4376815, “The Development Process for Discovery and Clinical Advancement of Modern Antimalarials” (J Med Chem, 2019):
Converted amounts (≈) assume the structure as drawn.

What was measured:
Plasmodium vivax [1] = assay: Antimalarial activity against Plasmodium vivax infected in human assessed as parasite clearance time at 30 mg/kg, po administered daily for 3 consecutive day and measured on day 5; type: functional
[2] = molecular target: Voltage-gated inwardly rectifying potassium channel KCNH2 (Homo sapiens, UniProt Q12809); assay: Inhibition of human ERG by binding assay
Plasmodium falciparum [3] = assay: Antimalarial activity against Plasmodium falciparum NF54 infected in human erythrocytes assessed as reduction in [3H]-hypoxanthine incorporation incubated for 48 hrs followed by addition of [3H]-hypoxanthine and measured after 24 hrs by liquid scintillation counting method; type: functional, organism-based
[4] = Oral bioavailability in rat at 23.7 mg/kg and measured up to 24 hrs by LC/MS analysis; type: ADME, organism-based; settings: in vivo
Plasmodium falciparum [5] = assay: Antimalarial activity against Plasmodium falciparum K1 infected in human erythrocytes assessed as reduction in [3H]-hypoxanthine incorporation incubated for 48 hrs followed by addition of [3H]-hypoxanthine and measured after 24 hrs by liquid scintillation counting method; type: functional, organism-based
Plasmodium falciparum [6] = assay: Antimalarial activity against Plasmodium falciparum TM91C235 infected in human erythrocytes assessed as reduction in [3H]-hypoxanthine incorporation incubated for 48 hrs followed by addition of [3H]-hypoxanthine and measured after 24 hrs by liquid scintillation counting method; type: functional, organism-based
[7] = Volume of distribution in Wistar Hannover rat at 5 mg/kg, iv by LC-MS/MS analysis; type: ADME, organism-based; settings: in vivo
Plasmodium vivax [8] = assay: Antimalarial activity against Plasmodium vivax infected in human assessed as median parasite clearance time at 30 mg/kg, po administered daily for 3 consecutive day and measured on day 5; type: functional
Plasmodium falciparum [9] = assay: Antimalarial activity against Plasmodium falciparum infected in po dosed human assessed as reduction in parasite growth; type: functional
[10] = Oral bioavailability in Wistar Hannover rat at 10 mg/kg by LC-MS/MS analysis; type: ADME, organism-based; settings: in vivo
Plasmodium berghei [11] = assay: Antimalarial activity against Plasmodium berghei infected in po dosed NMRI mouse assessed as reduction in parasite growth administered daily for 3 consecutive days by flow cytometric analysis; type: functional
[12] = Half life in human; type: ADME
[13] = Cytotoxicity against human THP1 cells assessed as reduction in cell viability after 4 days by XTT assay; type: cell-based; settings: THP-1 cells
[14] = AUC (0 to 24 hrs) in human at 300 mg, po by LC-MS/MS analysis; settings: in vivo
Plasmodium berghei [15] = assay: Antimalarial activity against Plasmodium berghei infected in NMRI mouse assessed as reduction in parasite growth at 5.3 mg/kg, po administered daily for 3 consecutive days by flow cytometric analysis relative to control; type: functional; design: scale not given: the % may be the effect or the level left
[16] = Tmax in Beagle dog at 3 mg/kg, po by LC-MS/MS analysis; type: ADME, organism-based, Canis lupus familiaris; settings: in vivo
[17] = Apparent clearance in human at 300 mg, po and measured up to 96 to 144 hrs by LC-MS/MS analysis; settings: in vivo, read-out: CL(app) (converted)
[18] = Drug recovery in feces of po dosed human by LC-MS/MS analysis; type: ADME, organism-based; settings: faeces, read-out: Drug recovery
[19] = Cmax in Beagle dog at 3 mg/kg, po by LC-MS/MS analysis; type: ADME, organism-based, Canis lupus familiaris; design: dose 3 mg/kg, route oral; settings: in vivo
[20] = Half life in Beagle dog at 1 mg/kg, iv by LC-MS/MS analysis; settings: in vivo
[21] = Cmax in human at […], po and measured up to 96 to 144 hrs by LC-MS/MS analysis; type: ADME, organism-based; design: route oral; settings: in vivo
[22] = Half life in human at 300 mg/kg, po by LC-MS/MS analysis; settings: in vivo
[23] = Cmax in human at 150 mg, po for 3 days and measured on day 3 by LC-MS/MS analysis; settings: in vivo
[24] = Tmax in human at […], po and measured up to 96 to 144 hrs by LC-MS/MS analysis; type: ADME, organism-based; settings: in vivo
Plasmodium falciparum [25] = assay: Antimalarial activity against Plasmodium falciparum D6 infected in human erythrocytes assessed as reduction in [3H]-hypoxanthine incorporation incubated for 48 hrs followed by addition of [3H]-hypoxanthine and measured after 24 hrs by liquid scintillation counting method; type: functional, organism-based
Plasmodium vivax [26] = assay: Antimalarial activity against Plasmodium vivax infected in human assessed as reduction in parasite growth at 30 mg/kg, po administered daily for 3 consecutive day and measured on day 5 relative to control; type: functional; design: scale not given: the % may be the effect or the level left
Plasmodium berghei [27] = assay: Antimalarial activity against Plasmodium berghei infected in NMRI mouse assessed as mean survival days at 10 mg/kg, po administered once and measured up to 30 days; type: functional
Plasmodium falciparum [28] = assay: Antimalarial activity against Plasmodium falciparum V1/S infected in human erythrocytes assessed as reduction in [3H]-hypoxanthine incorporation incubated for 48 hrs followed by addition of [3H]-hypoxanthine and measured after 24 hrs by liquid scintillation counting method; type: functional, organism-based
[29] = Oral bioavailability in Beagle dog at 3 mg/kg by LC-MS/MS analysis; type: ADME, organism-based, Canis lupus familiaris; settings: in vivo
[30] = Half life in human at 30 mg/kg, po; settings: in vivo
Plasmodium falciparum [31] = assay: Antimalarial activity against Plasmodium falciparum infected in human assessed as median parasite clearance time at 30 mg/kg, po administered daily for 3 consecutive day and measured on day 5; type: functional
[32] = Metabolic stability in human assessed as paren compound remaining at […], po by LC-MS/MS analysis; type: ADME, organism-based; settings: in vivo
[33] = AUC (0 to 24 hrs) in human at 150 mg, po for 3 days and measured on day 3 by LC-MS/MS analysis; settings: in vivo
[34] = Cmax in human at 150 mg, po for 3 days and measured on day 1 by LC-MS/MS analysis; settings: in vivo
[35] = AUC (0 to 24 hrs) in human at 150 mg, po for 3 days and measured on day 1 by LC-MS/MS analysis; settings: in vivo
Plasmodium berghei [36] = assay: Antimalarial activity against Plasmodium berghei infected in NMRI mouse assessed as mean survival days at 100 mg/kg, po administered once and measured up to 30 days; type: functional
Plasmodium berghei [37] = assay: Antimalarial activity against Plasmodium berghei infected in NMRI mouse assessed as reduction in parasite growth at 50 mg/kg, po administered daily for 3 consecutive days by flow cytometric analysis relative to control; type: functional; design: scale not given: the % may be the effect or the level left
[38] = Cmax in Wistar Hannover rat at 10 mg/kg, po by LC-MS/MS analysis; type: ADME, organism-based; design: dose 10 mg/kg, route oral; settings: in vivo
Plasmodium falciparum [39] = assay: Antimalarial activity against Plasmodium falciparum infected in human assessed as median clearance time at 30 mg/kg, po administered daily for 3 consecutive day and measured on day 5; type: functional
[40] = Half life in Wistar Hannover rat at 5 mg/kg, iv by LC-MS/MS analysis; settings: in vivo
Plasmodium berghei [41] = assay: Antimalarial activity against Plasmodium berghei infected in NMRI mouse assessed as reduction in parasite growth at 10 mg/kg, po administered daily for 3 consecutive days by flow cytometric analysis relative to control; type: functional; design: scale not given: the % may be the effect or the level left
[42] = Clearance in Wistar Hannover rat at 5 mg/kg, iv by LC-MS/MS analysis; type: ADME, organism-based; settings: in vivo

Voltage-gated inwardly rectifying potassium channel KCNH2, sequence (Q12809 whole entry): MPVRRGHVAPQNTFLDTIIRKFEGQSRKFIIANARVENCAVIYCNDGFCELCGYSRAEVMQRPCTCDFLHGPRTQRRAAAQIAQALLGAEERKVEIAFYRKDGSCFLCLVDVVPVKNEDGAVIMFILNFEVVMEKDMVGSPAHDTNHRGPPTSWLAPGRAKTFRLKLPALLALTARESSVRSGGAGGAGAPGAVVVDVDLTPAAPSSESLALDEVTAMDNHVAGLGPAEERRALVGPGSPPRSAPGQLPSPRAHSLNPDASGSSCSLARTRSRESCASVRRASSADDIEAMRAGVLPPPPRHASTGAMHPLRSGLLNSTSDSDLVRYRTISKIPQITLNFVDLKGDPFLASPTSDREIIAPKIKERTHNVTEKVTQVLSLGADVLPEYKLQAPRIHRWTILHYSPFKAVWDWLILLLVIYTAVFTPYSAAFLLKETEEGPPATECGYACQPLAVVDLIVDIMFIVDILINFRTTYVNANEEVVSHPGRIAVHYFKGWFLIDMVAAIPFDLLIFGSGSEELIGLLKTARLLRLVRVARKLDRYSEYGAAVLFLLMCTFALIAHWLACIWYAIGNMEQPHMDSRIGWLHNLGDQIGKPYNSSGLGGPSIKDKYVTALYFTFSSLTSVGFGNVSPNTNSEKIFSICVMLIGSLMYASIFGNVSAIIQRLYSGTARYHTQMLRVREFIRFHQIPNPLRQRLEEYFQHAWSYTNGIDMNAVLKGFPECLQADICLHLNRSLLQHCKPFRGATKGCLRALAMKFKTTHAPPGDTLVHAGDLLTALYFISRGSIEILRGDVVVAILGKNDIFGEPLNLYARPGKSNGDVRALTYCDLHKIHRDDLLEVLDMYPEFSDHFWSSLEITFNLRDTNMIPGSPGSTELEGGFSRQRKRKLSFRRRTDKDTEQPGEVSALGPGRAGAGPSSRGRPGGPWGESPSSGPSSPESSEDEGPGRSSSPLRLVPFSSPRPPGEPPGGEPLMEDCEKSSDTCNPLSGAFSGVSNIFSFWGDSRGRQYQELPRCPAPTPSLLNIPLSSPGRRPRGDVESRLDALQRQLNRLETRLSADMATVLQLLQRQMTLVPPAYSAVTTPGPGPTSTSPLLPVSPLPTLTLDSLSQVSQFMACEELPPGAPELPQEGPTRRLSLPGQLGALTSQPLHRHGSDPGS

## C[C@H]1Cc2c([nH]c3cc(Cl)c(F)cc23)[C@@]2(N1)C(=O)Nc1ccc(Cl)cc12 [CIPARGAMIN]
Plasmodium vivax [1]
  Time: 30 h
[2]
  IC50: ≥ 30000 nM
Plasmodium falciparum [3]
  EC50: 0.5 to 1.4 nM
[4]
  bioavailability: 100%
Plasmodium falciparum [5]
  EC50: 0.5 to 1.4 nM
Plasmodium falciparum [6]
  EC50: 0.5 to 1.4 nM
[7]
  Vd: 3.18 L/kg
Plasmodium vivax [8]
  Time: 12 h
Plasmodium falciparum [9]
  MIC: 0.126 ng/mL (≈ 0.323 nM)
[10]
  bioavailability: 85%
Plasmodium berghei [11]
  ED50: 1.2 mg/kg
  ED90: 2.7 mg/kg
  ED99: 5.3 mg/kg
[12]
  half-life: 33 h
[13]
  CC50 at 96 h: > 10000 nM
[14]
  AUC(0-t) at 24 h: 36000 ng·h/mL
Plasmodium berghei [15]
  Activity: 99%
[16]
  Tmax: 1.7 h
[17]
  CL/F: 91.7 mL/min
[18]
  dose excreted: 32%
[19]
  Cmax: 868 ng/mL
[20]
  half-life: 10.9 h
[21]
  Cmax: 2000 ng/mL
[22]
  half-life: 24 h
[23]
  Cmax: 1770 ng/mL
[24]
  Tmax: 8 h
Plasmodium falciparum [25]
  EC50: 0.5 to 1.4 nM
Plasmodium vivax [26]
  Activity: 100%
Plasmodium berghei [27]
  MSD: 13.3 days
Plasmodium falciparum [28]
  EC50: 0.5 to 1.4 nM
[29]
  bioavailability: 68%
[30]
  half-life: 20.8 h
Plasmodium falciparum [31]
  Time: 12 h
[32]
  Stability: 75%
[33]
  AUC at 24 h: 29400 ng·h/mL
[34]
  Cmax: 1170 ng/mL
[35]
  AUC(0-t) at 24 h: 15000 ng·h/mL
Plasmodium berghei [36]
  MSD: >30 days
Plasmodium berghei [37]
  Activity: 100%
[38]
  Cmax: 1210 ng/mL
Plasmodium falciparum [39]
  Time: 16 h
[40]
  half-life: 8.2 h
Plasmodium berghei [41]
  Activity: 50%
[42]
  clearance: 4.2 mL/min/kg
